The results in this text go back to publication PMC5933747 (PLoS ONE, 2018).

Data set [1] concerns the target human NaV1.4 (Homo sapiens, UniProt P35499). As to the kind of experiment: IonWorks Quattro (IWQ) electrophysiology, human NaV1.4. As to conditions: read-out: Ala mutant IWQ IC50 NaV1.4. The class given is cell-based. In general terms: Patch clamp records ionic current or voltage across a cell membrane.
In data set [2] the target is human NaV1.5 (Homo sapiens, UniProt Q14524). Kind of data set: IonWorks Quattro (IWQ) electrophysiology, human NaV1.5. The data set is classed as cell-based.
Sequence of human NaV1.5 (Q14524 whole entry): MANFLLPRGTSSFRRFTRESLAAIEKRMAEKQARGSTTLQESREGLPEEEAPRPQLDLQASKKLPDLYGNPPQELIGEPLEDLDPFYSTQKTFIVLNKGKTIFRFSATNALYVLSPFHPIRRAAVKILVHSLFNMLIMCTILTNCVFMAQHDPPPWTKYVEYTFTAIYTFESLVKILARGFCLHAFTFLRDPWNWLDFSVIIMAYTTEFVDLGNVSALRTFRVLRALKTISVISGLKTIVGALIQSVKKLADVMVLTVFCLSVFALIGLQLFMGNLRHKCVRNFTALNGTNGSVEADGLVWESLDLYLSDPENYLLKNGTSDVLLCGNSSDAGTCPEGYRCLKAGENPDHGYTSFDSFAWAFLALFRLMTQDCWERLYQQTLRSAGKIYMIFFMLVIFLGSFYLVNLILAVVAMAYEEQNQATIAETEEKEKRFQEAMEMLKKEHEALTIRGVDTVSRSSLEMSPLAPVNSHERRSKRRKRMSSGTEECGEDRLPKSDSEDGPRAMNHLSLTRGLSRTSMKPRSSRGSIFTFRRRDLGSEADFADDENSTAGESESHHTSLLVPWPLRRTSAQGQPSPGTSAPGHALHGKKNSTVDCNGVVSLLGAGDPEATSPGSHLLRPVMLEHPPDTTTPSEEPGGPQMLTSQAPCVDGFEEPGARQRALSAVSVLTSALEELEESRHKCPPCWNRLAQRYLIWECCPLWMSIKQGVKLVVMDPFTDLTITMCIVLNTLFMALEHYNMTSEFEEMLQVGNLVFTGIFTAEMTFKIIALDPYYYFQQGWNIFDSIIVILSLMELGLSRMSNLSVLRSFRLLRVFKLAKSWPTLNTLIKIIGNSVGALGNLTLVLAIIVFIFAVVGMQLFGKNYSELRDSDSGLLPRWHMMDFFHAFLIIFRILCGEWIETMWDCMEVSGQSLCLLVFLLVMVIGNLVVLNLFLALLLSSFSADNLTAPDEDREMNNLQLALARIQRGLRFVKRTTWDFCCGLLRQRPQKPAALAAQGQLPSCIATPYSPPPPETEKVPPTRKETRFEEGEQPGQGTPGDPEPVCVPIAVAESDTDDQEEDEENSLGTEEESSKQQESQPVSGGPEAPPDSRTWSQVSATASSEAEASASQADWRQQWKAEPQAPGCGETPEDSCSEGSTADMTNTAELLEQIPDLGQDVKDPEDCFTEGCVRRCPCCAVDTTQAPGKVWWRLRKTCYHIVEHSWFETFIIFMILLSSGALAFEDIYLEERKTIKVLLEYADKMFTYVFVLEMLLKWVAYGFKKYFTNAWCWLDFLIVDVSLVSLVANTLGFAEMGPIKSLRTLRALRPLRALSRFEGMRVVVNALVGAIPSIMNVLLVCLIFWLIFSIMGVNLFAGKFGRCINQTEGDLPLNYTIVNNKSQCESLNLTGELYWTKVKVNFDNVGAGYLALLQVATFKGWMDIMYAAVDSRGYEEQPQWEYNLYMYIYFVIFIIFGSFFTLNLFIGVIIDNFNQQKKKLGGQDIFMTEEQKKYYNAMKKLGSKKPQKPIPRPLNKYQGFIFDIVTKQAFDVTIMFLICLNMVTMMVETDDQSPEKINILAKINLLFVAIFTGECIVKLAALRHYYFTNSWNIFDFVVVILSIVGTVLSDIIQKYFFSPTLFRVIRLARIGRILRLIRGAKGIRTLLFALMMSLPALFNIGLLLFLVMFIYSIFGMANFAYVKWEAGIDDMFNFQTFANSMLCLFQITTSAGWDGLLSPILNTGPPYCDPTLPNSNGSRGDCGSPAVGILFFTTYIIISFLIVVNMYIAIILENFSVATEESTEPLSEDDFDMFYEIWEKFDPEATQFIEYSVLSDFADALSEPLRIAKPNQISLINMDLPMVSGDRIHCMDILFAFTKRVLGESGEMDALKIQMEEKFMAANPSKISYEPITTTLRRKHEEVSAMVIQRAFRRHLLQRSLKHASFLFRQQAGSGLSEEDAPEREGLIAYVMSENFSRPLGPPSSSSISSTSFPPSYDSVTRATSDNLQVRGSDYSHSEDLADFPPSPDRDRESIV
[3] abbreviates: human, read-out: Ala mutant IWQ IC50 NaV1.5.
The mark [4] stands for this setting: human, read-out: Glu mutant IWQ IC50 NaV1.5.

As usually defined, the IC50 is the concentration that gives 50% inhibition.

Like-named read-outs stand apart in the source and are kept apart here.

Sequence of human NaV1.4 (P35499 whole entry): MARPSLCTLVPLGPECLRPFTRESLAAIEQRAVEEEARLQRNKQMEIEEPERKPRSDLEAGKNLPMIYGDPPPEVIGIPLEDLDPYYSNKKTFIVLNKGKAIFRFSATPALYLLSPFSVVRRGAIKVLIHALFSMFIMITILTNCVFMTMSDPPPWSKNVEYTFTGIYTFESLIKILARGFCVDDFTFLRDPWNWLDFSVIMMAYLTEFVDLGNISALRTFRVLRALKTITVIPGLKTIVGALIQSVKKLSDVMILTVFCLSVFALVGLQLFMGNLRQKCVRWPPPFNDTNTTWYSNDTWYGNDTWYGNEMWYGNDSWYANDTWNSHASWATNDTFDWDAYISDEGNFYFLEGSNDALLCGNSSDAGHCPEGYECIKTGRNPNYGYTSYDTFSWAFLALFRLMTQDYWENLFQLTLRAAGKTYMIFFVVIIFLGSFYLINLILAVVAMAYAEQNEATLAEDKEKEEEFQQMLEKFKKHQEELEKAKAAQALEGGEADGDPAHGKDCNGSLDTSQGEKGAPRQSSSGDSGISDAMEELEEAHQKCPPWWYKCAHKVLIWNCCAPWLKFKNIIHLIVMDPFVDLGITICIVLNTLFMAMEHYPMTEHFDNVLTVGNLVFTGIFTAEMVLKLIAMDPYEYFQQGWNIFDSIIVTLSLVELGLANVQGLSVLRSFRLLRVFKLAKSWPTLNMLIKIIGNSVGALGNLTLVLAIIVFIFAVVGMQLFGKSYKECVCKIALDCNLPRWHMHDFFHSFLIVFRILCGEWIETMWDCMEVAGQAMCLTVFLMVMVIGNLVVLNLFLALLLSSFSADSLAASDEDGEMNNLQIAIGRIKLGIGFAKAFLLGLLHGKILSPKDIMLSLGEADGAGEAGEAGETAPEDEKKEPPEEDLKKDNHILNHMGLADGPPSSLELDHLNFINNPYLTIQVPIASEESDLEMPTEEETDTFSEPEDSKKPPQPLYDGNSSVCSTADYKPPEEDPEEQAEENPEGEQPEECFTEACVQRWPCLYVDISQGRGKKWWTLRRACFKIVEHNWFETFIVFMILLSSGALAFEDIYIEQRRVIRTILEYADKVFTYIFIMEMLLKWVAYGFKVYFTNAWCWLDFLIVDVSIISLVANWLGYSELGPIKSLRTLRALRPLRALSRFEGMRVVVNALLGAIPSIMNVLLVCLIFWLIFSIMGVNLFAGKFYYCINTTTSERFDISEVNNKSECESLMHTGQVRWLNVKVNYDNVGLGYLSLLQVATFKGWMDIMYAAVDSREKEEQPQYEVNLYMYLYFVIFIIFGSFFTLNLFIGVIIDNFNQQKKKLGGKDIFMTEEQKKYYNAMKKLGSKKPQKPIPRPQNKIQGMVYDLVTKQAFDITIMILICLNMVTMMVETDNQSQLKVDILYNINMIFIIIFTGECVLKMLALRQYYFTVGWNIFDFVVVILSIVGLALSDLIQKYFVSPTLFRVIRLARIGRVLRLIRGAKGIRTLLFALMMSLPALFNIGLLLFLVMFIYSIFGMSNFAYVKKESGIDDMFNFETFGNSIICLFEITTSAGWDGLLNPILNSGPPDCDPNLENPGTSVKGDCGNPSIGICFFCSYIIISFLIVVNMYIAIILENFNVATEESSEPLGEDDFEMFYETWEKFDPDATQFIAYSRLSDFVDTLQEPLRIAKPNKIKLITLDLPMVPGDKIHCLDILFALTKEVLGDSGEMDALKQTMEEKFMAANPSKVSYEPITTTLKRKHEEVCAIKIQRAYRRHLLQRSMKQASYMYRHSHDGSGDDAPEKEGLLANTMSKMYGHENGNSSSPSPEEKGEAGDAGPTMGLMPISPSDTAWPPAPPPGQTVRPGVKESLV

As to `CC[C@H](C)[C@H](NC(=O)[C@@H](NC(=O)[C@H](CCCCN)NC(=O)[C@H](CCCNC(=N)N)NC(=O)[C@@H]1CSSC[C@@H]2NC(=O)[C@H](C)NC(=O)[C@H](CCCNC(=N)N)NC(=O)[C@H](CCCCN)NC(=O)[C@H](CO)NC(=O)[C@H](CC(=O)O)NC(=O)[C@@H]3CSSC[C@H](NC(=O)[C@H](C)NC(=O)[C@H](CC(C)C)NC(=O)CNC(=O)[C@H](CCC(=O)O)NC(=O)[C@H](CSSC[C@H](NC(=O)[C@@H](N)Cc4ccc(O)cc4)C(=O)N[C@@H](CCC(N)=O)C(=O)N[C@@H](CCCCN)C(=O)N[C@@H](Cc4c[nH]c5ccccc45)C(=O)N[C@@H](CCSC)C(=O)N[C@@H](Cc4c[nH]c5ccccc45)C(=O)N[C@@H]([C@@H](C)O)C(=O)N3)NC2=O)C(=O)N[C@@H](CCCCN)C(=O)N[C@@H](CC(C)C)C(=O)N[C@@H](Cc2c[nH]c3ccccc23)C(=O)N1)[C@@H](C)CC)C(N)=O` [R20 Ala mutant], the IC50 was determined as 0.425 µM in data set [1] and 4.64 µM in data set [2] (setting [3]). For `CC[C@H](C)[C@H](NC(=O)[C@@H](NC(=O)[C@H](CCCCN)NC(=O)[C@H](CCCNC(=N)N)NC(=O)[C@@H]1CSSC[C@@H]2NC(=O)[C@H](C)NC(=O)[C@H](CCCNC(=N)N)NC(=O)[C@H](CCCCN)NC(=O)[C@H](CO)NC(=O)[C@H](CC(=O)O)NC(=O)[C@@H]3CSSC[C@H](NC(=O)[C@H](CCCNC(=N)N)NC(=O)[C@H](CC(C)C)NC(=O)CNC(=O)[C@H](CCC(=O)O)NC(=O)[C@H](CSSC[C@H](NC(=O)[C@@H](N)Cc4ccc(O)cc4)C(=O)N[C@@H](CCC(N)=O)C(=O)N[C@@H](CCCCN)C(=O)N[C@@H](Cc4c[nH]c5ccccc45)C(=O)N[C@@H](CCSC)C(=O)N[C@@H](Cc4c[nH]c5ccccc45)C(=O)N[C@@H](C)C(=O)N3)NC2=O)C(=O)N[C@@H](CCCCN)C(=O)N[C@@H](CC(C)C)C(=O)N[C@@H](Cc2c[nH]c3ccccc23)C(=O)N1)[C@@H](C)CC)C(N)=O` [T8 Ala mutant], the IC50 in data set [2] (setting [3]) was above 5 µM. `CC[C@H](C)[C@H](NC(=O)[C@@H](NC(=O)[C@H](CCCCN)NC(=O)[C@H](CCCNC(=N)N)NC(=O)[C@@H]1CSSC[C@@H]2NC(=O)[C@H](C)NC(=O)[C@H](CCCNC(=N)N)NC(=O)[C@H](CCCCN)NC(=O)[C@H](CCC(=O)O)NC(=O)[C@H](CC(=O)O)NC(=O)[C@@H]3CSSC[C@H](NC(=O)[C@H](CCCNC(=N)N)NC(=O)[C@H](CC(C)C)NC(=O)CNC(=O)[C@H](CCC(=O)O)NC(=O)[C@H](CSSC[C@H](NC(=O)[C@@H](N)Cc4ccc(O)cc4)C(=O)N[C@@H](CCC(N)=O)C(=O)N[C@@H](CCCCN)C(=O)N[C@@H](Cc4c[nH]c5ccccc45)C(=O)N[C@@H](CCSC)C(=O)N[C@@H](Cc4c[nH]c5ccccc45)C(=O)N[C@@H]([C@@H](C)O)C(=O)N3)NC2=O)C(=O)N[C@@H](CCCCN)C(=O)N[C@@H](CC(C)C)C(=O)N[C@@H](Cc2c[nH]c3ccccc23)C(=O)N1)[C@@H](C)CC)C(N)=O` [S11 Glu mutant]: the IC50 in data set [2] (setting [4]) was above 5 µM.

With `CC[C@H](C)[C@H](NC(=O)[C@@H](NC(=O)[C@H](CCCCN)NC(=O)[C@H](CCCNC(=N)N)NC(=O)[C@@H]1CSSC[C@@H]2NC(=O)[C@H](C)NC(=O)[C@H](CCCNC(=N)N)NC(=O)[C@H](CCCCN)NC(=O)[C@H](CO)NC(=O)[C@H](CC(=O)O)NC(=O)[C@@H]3CSSC[C@H](NC(=O)[C@H](CCCNC(=N)N)NC(=O)[C@H](CC(C)C)NC(=O)CNC(=O)[C@H](CCC(=O)O)NC(=O)[C@H](CSSC[C@H](NC(=O)[C@@H](N)Cc4ccc(O)cc4)C(=O)N[C@@H](CCC(N)=O)C(=O)N[C@@H](CCCCN)C(=O)N[C@@H](Cc4c[nH]c5ccccc45)C(=O)N[C@@H](C)C(=O)N[C@@H](Cc4c[nH]c5ccccc45)C(=O)N[C@@H]([C@@H](C)O)C(=O)N3)NC2=O)C(=O)N[C@@H](CCCCN)C(=O)N[C@@H](CC(C)C)C(=O)N[C@@H](Cc2c[nH]c3ccccc23)C(=O)N1)[C@@H](C)CC)C(N)=O` [M6 Ala mutant], the IC50 in data set [2] (setting [3]) was above 5 µM. Turning to `CC[C@H](C)[C@H](NC(=O)[C@@H](NC(=O)[C@H](CCCCN)NC(=O)[C@H](CCCNC(=N)N)NC(=O)[C@@H]1CSSC[C@@H]2NC(=O)[C@H](C)NC(=O)[C@H](CCCNC(=N)N)NC(=O)[C@H](CCCCN)NC(=O)[C@H](CO)NC(=O)[C@H](CC(=O)O)NC(=O)[C@@H]3CSSC[C@H](NC(=O)[C@H](CCCNC(=N)N)NC(=O)[C@H](CC(C)C)NC(=O)CNC(=O)[C@H](CCC(=O)O)NC(=O)[C@H](CSSC[C@H](NC(=O)[C@@H](N)Cc4ccc(O)cc4)C(=O)N[C@@H](CCC(N)=O)C(=O)N[C@@H](CCCCN)C(=O)N[C@@H](Cc4c[nH]c5ccccc45)C(=O)N[C@@H](CCSC)C(=O)N[C@@H](Cc4c[nH]c5ccccc45)C(=O)N[C@@H]([C@@H](C)O)C(=O)N3)NC2=O)C(=O)N[C@@H](CCCCN)C(=O)N[C@@H](C)C(=O)N[C@@H](Cc2c[nH]c3ccccc23)C(=O)N1)[C@@H](C)CC)C(N)=O` [L23 Ala mutant], the IC50 in data set [2] (setting [3]) was above 5 µM. On to `CC[C@H](C)[C@H](NC(=O)[C@@H](NC(=O)[C@H](CCCCN)NC(=O)[C@H](CCCNC(=N)N)NC(=O)[C@@H]1CSSC[C@@H]2NC(=O)[C@H](C)NC(=O)[C@H](C)NC(=O)[C@H](CCCCN)NC(=O)[C@H](CO)NC(=O)[C@H](CC(=O)O)NC(=O)[C@@H]3CSSC[C@H](NC(=O)[C@H](CCCNC(=N)N)NC(=O)[C@H](CC(C)C)NC(=O)CNC(=O)[C@H](CCC(=O)O)NC(=O)[C@H](CSSC[C@H](NC(=O)[C@@H](N)Cc4ccc(O)cc4)C(=O)N[C@@H](CCC(N)=O)C(=O)N[C@@H](CCCCN)C(=O)N[C@@H](Cc4c[nH]c5ccccc45)C(=O)N[C@@H](CCSC)C(=O)N[C@@H](Cc4c[nH]c5ccccc45)C(=O)N[C@@H]([C@@H](C)O)C(=O)N3)NC2=O)C(=O)N[C@@H](CCCCN)C(=O)N[C@@H](CC(C)C)C(=O)N[C@@H](Cc2c[nH]c3ccccc23)C(=O)N1)[C@@H](C)CC)C(N)=O` [R13 Ala mutant], for which the IC50 in data set [2] (setting [3]) was above 5 µM. On the same count and under the same terms, with `CC[C@H](C)[C@H](NC(=O)[C@H](CCCCN)NC(=O)[C@H](CCCNC(=N)N)NC(=O)[C@@H]1CSSC[C@@H]2NC(=O)[C@H](C)NC(=O)[C@H](CCCNC(=N)N)NC(=O)[C@H](CCCCN)NC(=O)[C@H](CO)NC(=O)[C@H](CC(=O)O)NC(=O)[C@@H]3CSSC[C@H](NC(=O)[C@H](CCCNC(=N)N)NC(=O)[C@H](CC(C)C)NC(=O)CNC(=O)[C@H](CCC(=O)O)NC(=O)[C@H](CSSC[C@H](NC(=O)[C@@H](N)Cc4ccc(O)cc4)C(=O)N[C@@H](CCC(N)=O)C(=O)N[C@@H](CCCCN)C(=O)N[C@@H](Cc4c[nH]c5ccccc45)C(=O)N[C@@H](CCSC)C(=O)N[C@@H](Cc4c[nH]c5ccccc45)C(=O)N[C@@H]([C@@H](C)O)C(=O)N3)NC2=O)C(=O)N[C@@H](CCCCN)C(=O)N[C@@H](CC(C)C)C(=O)N[C@@H](Cc2c[nH]c3ccccc23)C(=O)N1)C(=O)N[C@@H](C)C(N)=O` [I29 Ala mutant] the figure was above 5 µM. In the case of `CC[C@H](C)[C@H](NC(=O)[C@@H](NC(=O)[C@H](CCCCN)NC(=O)[C@H](CCCNC(=N)N)NC(=O)[C@@H]1CSSC[C@@H]2NC(=O)[C@H](C)NC(=O)[C@H](CCCNC(=N)N)NC(=O)[C@H](CCCCN)NC(=O)[C@H](CO)NC(=O)[C@H](CC(=O)O)NC(=O)[C@@H]3CSSC[C@H](NC(=O)[C@H](CCCNC(=N)N)NC(=O)[C@H](CC(C)C)NC(=O)CNC(=O)[C@H](CCC(=O)O)NC(=O)[C@H](CSSC[C@H](NC(=O)[C@@H](N)Cc4ccc(O)cc4)C(=O)N[C@@H](CCC(N)=O)C(=O)N[C@@H](CCCCN)C(=O)N[C@@H](Cc4c[nH]c5ccccc45)C(=O)N[C@@H](CCSC)C(=O)N[C@@H](CCC(=O)O)C(=O)N[C@@H]([C@@H](C)O)C(=O)N3)NC2=O)C(=O)N[C@@H](CCCCN)C(=O)N[C@@H](CC(C)C)C(=O)N[C@@H](Cc2c[nH]c3ccccc23)C(=O)N1)[C@@H](C)CC)C(N)=O` [W7 Glu mutant], the IC50 in data set [2] (setting [4]) is above 5 µM. With `CC[C@H](C)[C@H](NC(=O)[C@@H](NC(=O)[C@H](CCCCN)NC(=O)[C@H](CCCNC(=N)N)NC(=O)[C@@H]1CSSC[C@@H]2NC(=O)[C@H](C)NC(=O)[C@H](CCCNC(=N)N)NC(=O)[C@H](CCCCN)NC(=O)[C@H](CO)NC(=O)[C@H](CC(=O)O)NC(=O)[C@@H]3CSSC[C@H](NC(=O)[C@H](CCCNC(=N)N)NC(=O)[C@H](CC(C)C)NC(=O)CNC(=O)[C@H](C)NC(=O)[C@H](CSSC[C@H](NC(=O)[C@@H](N)Cc4ccc(O)cc4)C(=O)N[C@@H](CCC(N)=O)C(=O)N[C@@H](CCCCN)C(=O)N[C@@H](Cc4c[nH]c5ccccc45)C(=O)N[C@@H](CCSC)C(=O)N[C@@H](Cc4c[nH]c5ccccc45)C(=O)N[C@@H]([C@@H](C)O)C(=O)N3)NC2=O)C(=O)N[C@@H](CCCCN)C(=O)N[C@@H](CC(C)C)C(=O)N[C@@H](Cc2c[nH]c3ccccc23)C(=O)N1)[C@@H](C)CC)C(N)=O` [E17 Ala mutant], the IC50 in data set [2] (read-out: Ala mutant IWQ IC50 NaV1.5) was above 5 µM. In the case of `CC[C@H](C)[C@H](NC(=O)[C@@H](NC(=O)[C@H](CCCCN)NC(=O)[C@H](CCCNC(=N)N)NC(=O)[C@@H]1CSSC[C@@H]2NC(=O)[C@H](C)NC(=O)[C@H](CCCNC(=N)N)NC(=O)[C@H](CCCCN)NC(=O)[C@H](CO)NC(=O)[C@H](CC(=O)O)NC(=O)[C@@H]3CSSC[C@H](NC(=O)[C@H](CCCNC(=N)N)NC(=O)[C@H](CC(C)C)NC(=O)CNC(=O)[C@H](CCC(=O)O)NC(=O)[C@H](CSSC[C@H](NC(=O)[C@@H](N)Cc4ccc(O)cc4)C(=O)N[C@@H](CCC(N)=O)C(=O)N[C@@H](CCCCN)C(=O)N[C@@H](Cc4c[nH]c5ccccc45)C(=O)N[C@@H](CCSC)C(=O)N[C@@H](Cc4c[nH]c5ccccc45)C(=O)N[C@@H]([C@@H](C)O)C(=O)N3)NC2=O)C(=O)N[C@@H](CCCCN)C(=O)N[C@@H](CCC(=O)O)C(=O)N[C@@H](Cc2c[nH]c3ccccc23)C(=O)N1)[C@@H](C)CC)C(N)=O` [L23 Glu mutant], the concentration for half-maximal inhibition (IC50) in data set [2] (setting [4]) is above 5 µM.
